Reference: ChEMBL document CHEMBL4842307, “Targeted Isolation of Saalfelduracin B-D from Amycolatopsis saalfeldensis Using LC-MS/MS-Based Molecular Networking” (2021)
In brackets after ≈: the same amount, converted by molar mass.

Tests used:
Type in all cases: functional
[1] = system: Escherichia coli; test: Antimicrobial activity against Escherichia coli ATCC35218 assessed as growth inhibition after 24 hrs by microdilution assay
[2] = system: Staphylococcus aureus; test: Antimicrobial activity against Staphylococcus aureus ATCC12715 assessed as growth inhibition after 24 hrs by microdilution assay
[3] = system: Staphylococcus epidermidis; test: Antimicrobial activity against Staphylococcus epidermis CCM628 assessed as growth inhibition after 24 hrs by microdilution assay
[4] = system: Bacillus subtilis; test: Antimicrobial activity against Bacillus subtilis ATCC9372 assessed as growth inhibition after 24 hrs by microdilution assay
[5] = system: Candida albicans; test: Antimicrobial activity against Candida albicans SC5314 assessed as growth inhibition after 24 hrs by microdilution assay

Structure (SMILES) | MIC [1] | MIC [2] | MIC [3] | MIC [4] | MIC [5]
C=C(NC(=O)C(=C)NC(=O)c1csc([C@H]2CC[C@]34NC(=O)C(=C)NC(=O)C(=C)NC(=O)C(=C)NC(=O)[C@H](C)N[C@@H]5C=Cc6c([C@H](C)O)cc(nc6[C@H]5O)C(=O)O[C@H](C)[C@H](NC(=S)c5csc(n5)[C@H]([C@@](C)(O)[C@H](C)O)NC(=O)[C@H]5CSC(=N5)/C(=C/C)NC(=O)[C@H]([C@@H](C)O)NC(=O)c5csc3n5)c3nc(cs3)[C@H]4N2)n1)C(=O)O | > 64 µg/mL | 0.5 µg/mL (≈ 0.305 µM) | 0.25 µg/mL (≈ 0.153 µM) | 0.25 µg/mL (≈ 0.153 µM) | > 64 µg/mL
C=C(NC(=O)C(=C)NC(=O)c1csc(C2=N[C@@H]3c4csc(n4)[C@H]4NC(=O)c5csc(n5)[C@H]([C@@](C)(O)[C@H](C)O)NC(=O)[C@H]5CSC(=N5)/C(=C/C)NC(=O)[C@H]([C@@H](C)O)NC(=O)c5csc(n5)[C@]3(CC2)NC(=O)[C@H](C)NC(=O)C(=C)NC(=O)[C@H](C)NC(=O)[C@H]([C@@H](C)CC)N[C@@H]2C=Cc3c([C@H](C)O)cc(nc3[C@H]2O)C(=O)O[C@@H]4C)n1)C(N)=O | > 64 µg/mL | 0.06 µg/mL (≈ 0.036 µM) | < 0.01 µg/mL | 0.06 µg/mL (≈ 0.036 µM) | > 64 µg/mL
C=C(NC(=O)C(=C)NC(=O)c1csc([C@H]2CC[C@]34NC(=O)C(=C)NC(=O)C(=C)NC(=O)C(=C)NC(=O)[C@H](C)N[C@@H]5C=Cc6c([C@H](C)O)cc(nc6[C@H]5O)C(=O)O[C@H](C)[C@H](NC(=O)c5csc(n5)[C@H]([C@@](C)(O)[C@H](C)O)NC(=O)[C@H]5CSC(=N5)/C(=C/C)NC(=O)[C@H]([C@@H](C)O)NC(=O)c5csc3n5)c3nc(cs3)[C@H]4N2)n1)C(=O)O | > 64 µg/mL | 8 µg/mL (≈ 4.93 µM) | 2 µg/mL (≈ 1.23 µM) | 8 µg/mL (≈ 4.93 µM) | > 64 µg/mL
C[C@@H]1[C@H](O)[C@@H](C)/C=C/C=C/C=C/C=C/C=C/C=C/C=C/[C@H](O[C@@H]2O[C@H](C)[C@@H](O)[C@H](N)[C@@H]2O)C[C@@H]2O[C@](O)(C[C@@H](O)C[C@@H](O)[C@H](O)CC[C@@H](O)C[C@@H](O)CC(=O)O[C@H]1C)C[C@H](O)[C@H]2C(=O)O [AMPHOTERICIN B] | > 64 µg/mL | > 64 µg/mL | > 64 µg/mL | > 64 µg/mL | 0.25 µg/mL (≈ 0.271 µM)
O=C(O)c1cn(C2CC2)c2cc(N3CCNCC3)c(F)cc2c1=O [CIPROFLOXACIN] | < 0.01 µg/mL | 0.06 µg/mL (≈ 0.181 µM) | 0.06 µg/mL (≈ 0.181 µM) | 0.06 µg/mL (≈ 0.181 µM) | > 64 µg/mL
C=C(NC(=O)c1csc([C@H]2CC[C@]34NC(=O)C(=C)NC(=O)C(=C)NC(=O)C(=C)NC(=O)[C@H](C)N[C@@H]5C=Cc6c([C@H](C)O)cc(nc6[C@H]5O)C(=O)O[C@H](C)[C@H](NC(=S)c5csc(n5)[C@H]([C@@](C)(O)[C@H](C)O)NC(=O)[C@H]5CSC(=N5)/C(=C/C)NC(=O)[C@H]([C@@H](C)O)NC(=O)c5csc3n5)c3nc(cs3)[C@H]4N2)n1)C(N)=O | > 64 µg/mL | 2 µg/mL (≈ 1.28 µM) | 0.5 µg/mL (≈ 0.319 µM) | 1 µg/mL (≈ 0.638 µM) | > 64 µg/mL
C=C1NC(=O)C(=C)NC(=O)[C@H](C)N[C@@H]2C=Cc3c([C@H](C)O)cc(nc3[C@H]2O)C(=O)O[C@H](C)[C@@H]2NC(=S)c3csc(n3)[C@H]([C@@](C)(O)[C@H](C)O)NC(=O)[C@H]3CSC(=N3)/C(=C/C)NC(=O)[C@H]([C@@H](C)O)NC(=O)c3csc(n3)[C@]3(CC[C@H](c4nc(C(N)=O)cs4)N[C@@H]3c3csc2n3)NC(=O)C(=C)NC1=O | > 64 µg/mL | 1 µg/mL (≈ 0.667 µM) | 0.5 µg/mL (≈ 0.334 µM) | 1 µg/mL (≈ 0.667 µM) | > 64 µg/mL
